≈ marks a conversion by molar mass, not a printed value. Read-outs that look alike come from different tables or passages of the source. Marks after values point to notes of the source that are not given here. Positions of bridges follow the written chain, without caps; N, C: chain ends. Non-standard residues stand in square brackets, D forms with d. Residues, ends and D or L forms follow the SMILES beside them. Chains are numbered I, II in the order given. *: point of attachment. X1 = CC[C@H](C)CCCCC(=O)*; Dab = NCC[C@H](N)C(=O)O
What was measured:
[1] = test system: P. aeruginosa ATCC 27853; assay: microbe, parasite or virus in culture; assay type: cell-based
Summary of the method: (§1)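 Peptides two-fold diluted in Mueller-Hinton Broth (0.0976–50 μg/ml final) against 10^5–10^6 CFU/ml inoculum, 37 °C for 24 h with OD600 monitored every 30 min. MIC = lowest concentration with no visible growth; two independent duplicates.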

[2] = test system: K. pneumoniae ATCC10031; assay type: cell-based
Summary of the method: as §1

[3] = test system: P. aeruginosa 23155; assay type: cell-based
Summary of the method: as §1

[4] = test system: K. pneumonia 4299; assay: microbe, parasite or virus in culture; assay type: cell-based, K. pneumoniae; conditions: for MIC: Klebsiella pneumoniae, 4299, individual peptide/antibiotics, read-out: MIC against K. pneumoniae 4299
Summary of the method: as §1

[5] = test system: K. pneumoniae 07955; assay: microbe, parasite or virus in culture; assay type: cell-based; conditions: for MIC: Klebsiella pneumoniae, 07955, individual peptide/antibiotics, read-out: MIC against K. pneumoniae 07955
[6] = test system: P. aeruginosa ATCC 27853; assay type: cell-based; conditions: for Fractional inhibitory concentration of peptide/PMB, combination with Genta: first number in parenthesis; for Fractional inhibitory concentration of peptide/PMB, combination with Genta / Fractional inhibitory concentration of antibiotic, Genta combination: ATCC 27853; for Fractional inhibitory concentration of antibiotic, Genta combination: second number in parenthesis
Summary of the method: (§2)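 Checkerboard combinations of peptide and antibiotic, each 2-fold diluted up to 1× MIC in MHB, were tested against ~10^6 CFU/ml final inoculum. Plates were incubated 24 h at 37 °C, with growth read at OD600. FICI was the sum of the combination-to-alone MIC ratios for each agent, and the lowest FICI from duplicate experiments was reported.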

[7] = test system: P. aeruginosa DR4877/07; assay type: cell-based; conditions: for Fractional inhibitory concentration of peptide/PMB, combination with Chloarm / Fractional inhibitory concentration of peptide/PMB, combination with Erythro / Fractional inhibitory concentration of peptide/PMB, combination with Levo / Fractional inhibitory concentration of peptide/PMB, combination with Tobra: first number in parenthesis; for Fold decrease in the MIC of antibiotics at sub-lethal/sub-inhibitory concentrations of B2088: multidrug resistant P. aeruginosa 4877; for Fractional inhibitory concentration of antibiotic, Chloarm combination / Fractional inhibitory concentration of antibiotic, Erythro combination / Fractional inhibitory concentration of antibiotic, Levo combination / Fractional inhibitory concentration of antibiotic, Tobra combination: second number in parenthesis; for FICI of B2088-antibiotic combination: lowest FICI reported, two independent duplicates
Summary of the method: as §2

[8] = test system: P. aeruginosa ATCC 9027; assay: Outer membrane permeability assay (NPN); assay type: cell-based; conditions: no unit in table; Fig. S5 axis [Peptide], μM; 10 μM NPN, 5 mM HEPES pH 7.4, ex 355/em 405 nm; average of two titrations; read-out: PC50 (peptide concentration for half-maximal NPN intensity, OM permeability)
Summary of the method: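 Overnight MHB-grown cells were washed and resuspended in 5 mM HEPES pH 7.4 to OD600 0.200, then loaded with 10 μM NPN (final), with peptide titrated in after dye stabilization. Fluorescence ex 355/em 405 nm; PC50 is the peptide concentration giving half-maximal intensity, from a sigmoidal fit averaged over two titrations.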

[9] = test system: K. pneumonia 07955; assay: Checkerboard assay; assay type: cell-based, K. pneumoniae; conditions: for Fractional inhibitory concentration of B2088 used for FICI calculation: first number in parenthesis, in combination with the labelled antibiotic; for Fractional inhibitory concentration of antibiotic used for FICI calculation: second number in parenthesis, in combination with B2088
Protocol: (§3) The synergism between peptides with conventional antibiotics was evaluated using checkerboard assays. For a comparison polymyxin B (PMB) was also tested against each antibiotic. From their stock solutions, two-fold dilutions of each antibiotic and peptide to 1× MIC were prepared in MHB. 50 μl of each peptide concentration was added into the wells of a 96-well polystyrene plates (SPL Life Sciences Co. Ltd, Korea) in a horizontal orientation and the same volume of each antibiotic concentration were then added in a vertical orientation. Bacterial suspensions were prepared in MHB to yield final cell density of ~10^6 CFU/ml and 100 μl of bacterial suspension was mixed with each peptide-antibiotic combinations. This procedure was repeated for wells containing 200 μl of peptide alone and 200 μl of antibiotic alone in various concentrations. The positive and negative controls contained 200 μl of inoculum and MHB alone respectively. The plates were incubated at 37 °C for 24 hours and the optical density at 600 nm (OD600) was monitored as before. Fractional inhibitory concentration index (FICI) for all antibiotic- peptide combinations was calculated through the summation of (MIC of peptide in the combination/ MIC of peptide alone) and (MIC of antibiotics in combination/MIC of antibiotic alone). The experiments were performed in two independent duplicates and the combinations that gave the lowest FICI values was reported.

[10] = test system: K. pneumonia 31158; assay: Checkerboard assay; assay type: cell-based, K. pneumoniae; conditions: for Fractional inhibitory concentration of B2088 used for FICI calculation: first number in parenthesis, in combination with the labelled antibiotic; for Fractional inhibitory concentration of antibiotic used for FICI calculation: second number in parenthesis, in combination with B2088
Protocol: as §3

[11] = test system: K. pneumonia 4299; assay: Checkerboard assay; assay type: cell-based, K. pneumoniae; conditions: for Fractional inhibitory concentration of B2088 used for FICI calculation: first number in parenthesis, in combination with the labelled antibiotic; for Fractional inhibitory concentration of antibiotic used for FICI calculation: second number in parenthesis, in combination with B2088
Protocol: as §3

[12] = MIC of B2088 6.25 μg/ml, MHB, ~10^6 CFU/ml, 37 °C, 24 h
[13] = MHB, 10^5–10^6 CFU/ml, 37 °C, 24 h, two independent duplicates

| SMILES | Fractional inhibitory concentration of peptide/PMB, combination with Genta [6] | Fractional inhibitory concentration of antibiotic, Genta combination [6] | Fractional inhibitory concentration of peptide/PMB, combination with Chloarm [7] | Fractional inhibitory concentration of peptide/PMB, combination with Erythro [7] | Fractional inhibitory concentration of peptide/PMB, combination with Levo [7] | Fractional inhibitory concentration of peptide/PMB, combination with Tobra [7] | Fold decrease in the MIC of antibiotics at sub-lethal/sub-inhibitory concentrations of B2088 [7] | Fractional inhibitory concentration of antibiotic, Chloarm combination [7] | Fractional inhibitory concentration of antibiotic, Erythro combination [7] | Fractional inhibitory concentration of antibiotic, Levo combination [7] | Fractional inhibitory concentration of antibiotic, Tobra combination [7] | EC50 [8] | MIC [4] | MIC [5] | FICI of polymyxin B-antibiotic combination [7] | MIC of antibiotics in the presence of ¼× sub-MIC of B2088 [7, 12] | MIC of antibiotics in the presence of ½× sub-MIC of B2088 [7, 12] | FICI of B2088-antibiotic combination [7] | Fractional Inhibitory Concentration Index of B2088 with the antibiotic [9] | Fractional inhibitory concentration of B2088 used for FICI calculation [9] | further results |
| --- | --- | --- | --- | --- | --- | --- | --- | --- | --- | --- | --- | --- | --- | --- | --- | --- | --- | --- | --- | --- | --- |
| CC(C)[C@H](NC(=O)[C@H](CCCCN)NC(=O)[C@H](CCCNC(=N)N)NC(=O)CNC(=O)[C@@H](N)CCCNC(=N)N)C(=O)N[C@H](C(=O)N[C@@H](CCCNC(=N)N)C(=O)N[C@@H](CCCNC(=N)N)C(=O)NCCCC[C@H](NC(=O)[C@H](CCCNC(=N)N)NC(=O)[C@H](CCCNC(=N)N)NC(=O)[C@@H](NC(=O)[C@@H](NC(=O)[C@H](CCCCN)NC(=O)[C@H](CCCNC(=N)N)NC(=O)CNC(=O)[C@@H](N)CCCNC(=N)N)C(C)C)C(C)C)C(=O)N[C@@H](CCCCN)C(=O)O)C(C)C [B2088] (I: H-RGRKVVRRKK-OH / II: H-RGRKVVRR; amide I:9-II:C; N-terminus and C-terminus assumed) | (0.25,0.25) | (0.25,0.25) | (0.25,0.25) | (0.5,0.5) ^‡ | (0.5,0.5) | (0.25,0.25) | 2-8 fold | (0.25,0.25) | (0.5,0.5) ^‡ | (0.5,0.5) | (0.25,0.25) | 13.2 ± 0.4 µM | – | – | – | – | – | – | – | – | Minimum Inhibitory Concentration against P. aeruginosa ATCC 27853 ([1]; ATCC 27853, 24 h): 2.7 µM; Minimum Inhibitory Concentration against K. pneumoniae ATCC10031 ([2]; ATCC10031, 24 h): 1.4 µM; Minimum Inhibitory Concentration against P. aeruginosa 23155 ([3]; 23155, 24 h): 1.4 µM; MIC against K. pneumoniae 4299 ([4]; 24 h): 12.5 µg/mL (≈ 5.46 µM); Minimum Inhibitory Concentration against K. pneumonia 4299 ([4]; 24 h): 2.7 µM; MIC against K. pneumoniae 07955 ([5]; 07955, 24 h): 6.25 µg/mL (≈ 2.73 µM) |
| COc1c(N2CCNC(C)C2)c(F)cc2c(=O)c(C(=O)O)cn(C3CC3)c12 (stereo not shown) [Gatifloxacin] | – | – | – | – | – | – | – | – | – | – | – | – | 1.56 µg/mL (≈ 4.16 µM) | 1.56 µg/mL (≈ 4.16 µM) | 0.63 | 15.6 µg/mL | 7.8 µg/mL | 0.63 | 0.63 | 0.13 | MIC of antibiotics in the presence of ⅛× sub-MIC of B2088 [7, 12]: 15.6 µg/mL; Fractional inhibitory concentration of antibiotic used for FICI calculation [9]: 0.5; Fractional Inhibitory Concentration Index of B2088 with the antibiotic [10]: 0.56; Fractional inhibitory concentration of B2088 used for FICI calculation [10]: 0.06; Fractional inhibitory concentration of antibiotic used for FICI calculation [10]: 0.5; Fractional Inhibitory Concentration Index of B2088 with the antibiotic [11]: 0.56; Fractional inhibitory concentration of B2088 used for FICI calculation [11]: 0.06; Fractional inhibitory concentration of antibiotic used for FICI calculation [11]: 0.5 |
| CC[C@H](C)CCCCC(=O)N[C@@H](CCN)C(=O)N[C@H](C(=O)N[C@@H](CCN)C(=O)N[C@H]1CCNC(=O)[C@H]([C@@H](C)O)NC(=O)[C@H](CCN)NC(=O)[C@H](CCN)NC(=O)[C@H](CC(C)C)NC(=O)[C@@H](Cc2ccccc2)NC(=O)[C@H](CCN)NC1=O)[C@@H](C)O [Polymyxin B, polymyxin B, reference compound] (X1-[Dab]T[Dab][Dab][Dab][dF]L[Dab][Dab]T; lactam 4-C (inferred); N-terminus assumed) | (0.5,0.5) | (0.5,0.5) | 0.125 | 0.25 | 0.5 | (0.5,0.5) | – | 0.5 | 0.5 | 0.25 | (0.5,0.5) | 5.82 ± 0.6 µM | – | – | – | – | – | – | – | – | Minimum Inhibitory Concentration against P. aeruginosa ATCC 27853 [1, 13]: 0.57 µM; Minimum Inhibitory Concentration against K. pneumoniae ATCC10031 [2, 13]: 0.57 µM; Minimum Inhibitory Concentration against P. aeruginosa 23155 [3, 13]: 0.57 µM; Minimum Inhibitory Concentration against K. pneumonia 4299 [4, 13]: 1.13 µM; Fractional Inhibitory Concentration Index with Genta ([6]; peptide + gentamicin, P. aeruginosa ATCC 27853): 1.0; Fractional Inhibitory Concentration Index with Chloarm ([7]; peptide + chloramphenicol): 0.63; Fractional Inhibitory Concentration Index with Erythro ([7]; peptide + erythromycin): 0.75; Fractional Inhibitory Concentration Index with Levo ([7]; peptide + levofloxacin): 0.75; Fractional Inhibitory Concentration Index with Tobra ([7]; peptide + tobramycin): 1.0 |
| NC[C@H]1O[C@H](O[C@H]2[C@H](O)[C@@H](O[C@H]3O[C@H](CO)[C@@H](O)[C@H](N)[C@H]3O)[C@H](N)C[C@@H]2N)[C@H](N)C[C@@H]1O [Tobramycin] | – | – | – | – | – | – | 4 fold | – | – | – | – | – | 0.024 µg/mL (≈ 0.0513 µM) | 25 µg/mL (≈ 53.5 µM) | 1.0 | 200 µg/mL | 200 µg/mL | 0.5 | 0.75 | 0.5 | Fractional inhibitory concentration of antibiotic used for FICI calculation [9]: 0.25; Fractional Inhibitory Concentration Index of B2088 with the antibiotic [10]: 0.25; Fractional inhibitory concentration of B2088 used for FICI calculation [10]: (0.125,0.125); Fractional inhibitory concentration of antibiotic used for FICI calculation [10]: (0.125,0.125); Fractional Inhibitory Concentration Index of B2088 with the antibiotic [11]: 0.25; Fractional inhibitory concentration of B2088 used for FICI calculation [11]: (0.125,0.125); Fractional inhibitory concentration of antibiotic used for FICI calculation [11]: (0.125,0.125) |

From publication PMC4865820, “Branched Peptide, B2088, Disrupts the Supramolecular Organization of Lipopolysaccharides and Sensitizes the Gram-negative Bacteria” (Scientific Reports, 2016)
